Positions count from the first letter of the chain named. pIC50: −log10 of the molar value.
Tests used:
Type in all cases: cell-based
GIRK2 PIP L257W mutant = molecular target: T1, GIRK2 PIP L257W mutant (Mus musculus, UniProt P48542, D228N/I234L/L257W/M344L/N231K); assay: whole-cell patch clamp, GIRK2 PIP L257W mutant channel; conditions: for inhibition of GIRK2 PIP L257W mutant channel, percentage inhibition: equimolar alcohol series (50 mM); for pIC50: dose response, read-out: IC50 for inhibition of GIRK2 PIP L257W mutant
T1 construct: expressed in transfected cells; host or cells: HEK293 / HEK293T
T1 sequence (P48542 1-425 D228N/N231K/I234L/L257W/M344L): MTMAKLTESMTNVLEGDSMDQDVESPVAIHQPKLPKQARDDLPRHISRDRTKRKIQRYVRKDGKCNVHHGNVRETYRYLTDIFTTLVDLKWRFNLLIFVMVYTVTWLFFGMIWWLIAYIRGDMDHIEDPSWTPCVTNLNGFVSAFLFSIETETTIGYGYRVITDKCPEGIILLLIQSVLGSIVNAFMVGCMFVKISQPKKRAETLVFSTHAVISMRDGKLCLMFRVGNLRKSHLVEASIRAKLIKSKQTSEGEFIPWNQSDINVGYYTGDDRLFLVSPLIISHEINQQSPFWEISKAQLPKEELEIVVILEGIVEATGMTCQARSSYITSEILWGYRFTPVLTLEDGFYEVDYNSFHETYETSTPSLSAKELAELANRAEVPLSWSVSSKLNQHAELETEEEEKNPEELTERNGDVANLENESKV
Description: (§1) Point mutations were introduced by Quickchange site directed mutagenesis kit (Stratagene). The GIRK2 PIP mutant was generated by overlap-PCR method. […] Mutations were confirmed by automated DNA sequencing methods. […] Cells were plated in a 12 well dish, and were transiently transfected using Lipofectamine 2000 (Invitrogen). After 12-24 hrs, cells were re-plated to 12-mm glass coverslips coated with poly-D-[…] microgram/ml). […] The cells were co-transfected with 0.04 micrograms of eYFP cDNA to identify transfected cells. 0.8 micrograms of Muscarinic Receptor 2 (M2R) was also co-transfected for experiments with Carbachol. […] Whole-cell patch clamp recordings were performed 24-72 hrs after transfection. […] Alcohols, 5 μM Carbachol, and 1 mM BaCl2 (diluted in 20K solution) were applied from outside the cell with the rapid perfusion system (Warner Instruments). […] Current-voltage relationships also were obtained from the ramp protocol. This protocol was used to measure the inwardly rectifying currents at -100 mV and to ensure stability of recording by monitoring a reversal potential and inward rectification. […] Alcohol and Carbachol modulated currents were measured by averaging two consecutive current readings upon reaching steady state, and subtracting the averaged basal current before and after the application of modulator.

[1] = molecular target: T2, IRK1 L245W mutant channel (Mus musculus, UniProt P35561, L245W); assay: whole-cell patch clamp, IRK1 L245W mutant channel; conditions: equimolar 50 mM alcohol series
T2 construct: expressed in transfected cells; host or cells: HEK293 / HEK293T
T2 sequence (P35561 1-428 L245W): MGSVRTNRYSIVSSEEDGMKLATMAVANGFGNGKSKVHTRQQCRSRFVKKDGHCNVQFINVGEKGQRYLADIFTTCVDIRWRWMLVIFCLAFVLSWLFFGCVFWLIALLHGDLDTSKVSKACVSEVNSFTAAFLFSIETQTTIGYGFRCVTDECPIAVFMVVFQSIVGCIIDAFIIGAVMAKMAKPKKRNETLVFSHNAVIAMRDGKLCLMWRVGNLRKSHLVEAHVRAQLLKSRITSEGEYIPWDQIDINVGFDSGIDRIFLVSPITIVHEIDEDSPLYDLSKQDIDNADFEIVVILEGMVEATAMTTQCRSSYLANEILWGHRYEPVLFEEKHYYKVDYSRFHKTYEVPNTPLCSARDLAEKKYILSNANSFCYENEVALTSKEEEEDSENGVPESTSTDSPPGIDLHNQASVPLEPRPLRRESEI
Description: as §1

GIRK4 = molecular target: T3, GIRK4 (Rattus norvegicus, UniProt P48548); assay: whole-cell patch clamp, GIRK4 homo-tetramers; conditions: n=7
T3 construct: expressed in transfected cells; host or cells: HEK293 / HEK293T
T3 sequence (P48548 1-419): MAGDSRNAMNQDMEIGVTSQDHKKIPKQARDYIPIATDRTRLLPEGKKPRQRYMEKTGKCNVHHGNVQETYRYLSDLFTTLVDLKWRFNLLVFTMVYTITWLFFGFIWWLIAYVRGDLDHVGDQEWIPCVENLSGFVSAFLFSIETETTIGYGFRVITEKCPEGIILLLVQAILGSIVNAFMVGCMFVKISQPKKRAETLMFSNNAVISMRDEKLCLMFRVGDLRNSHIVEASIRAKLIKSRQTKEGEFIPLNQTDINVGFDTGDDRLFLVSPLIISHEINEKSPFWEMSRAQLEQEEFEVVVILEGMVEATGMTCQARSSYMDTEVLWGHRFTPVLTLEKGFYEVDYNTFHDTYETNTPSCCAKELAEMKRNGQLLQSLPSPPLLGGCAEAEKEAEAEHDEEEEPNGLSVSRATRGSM
Description: as §1

[2] = molecular target: T4, GIRK4 S143T mutant channel (GIRK4*) (Rattus norvegicus, UniProt P48548, S143T); assay: whole-cell patch clamp, GIRK4 S143T (GIRK4*) channel; conditions: for modulation of GIRK4 S143T mutant channel, mean percentage change from basal: n=7; for activation of GIRK4*, mean percentage change from basal current: wild type GIRK4*, n=8
T4 construct: expressed in transfected cells; host or cells: HEK293 / HEK293T
T4 sequence (P48548 1-419 S143T): T3 sequence (P48548 1-419) with S143T
Description: as §1

[3] = molecular target: T5, GIRK4* Leu252 to Tyr mutant channel (Rattus norvegicus, UniProt P48548, L252Y/S143T); assay: whole-cell patch clamp, GIRK4* L252Y mutant channel; conditions: for activation of GIRK4* Leu252 to Tyr mutant, percentage change from basal: n=8
T5 construct: expressed in transfected cells; host or cells: HEK293 / HEK293T
T5 sequence (P48548 1-419 S143T/L252Y): T3 sequence (P48548 1-419) with S143T, L252Y
Description: as §1

[4] = molecular target: T6, GIRK2 Y349W mutant channel (Mus musculus, UniProt P48542, Y349W); assay: whole-cell patch clamp, GIRK2 Y349W mutant channel; conditions: n=10
T6 construct: expressed in transfected cells; host or cells: HEK293T
T6 sequence (P48542 whole entry Y349W): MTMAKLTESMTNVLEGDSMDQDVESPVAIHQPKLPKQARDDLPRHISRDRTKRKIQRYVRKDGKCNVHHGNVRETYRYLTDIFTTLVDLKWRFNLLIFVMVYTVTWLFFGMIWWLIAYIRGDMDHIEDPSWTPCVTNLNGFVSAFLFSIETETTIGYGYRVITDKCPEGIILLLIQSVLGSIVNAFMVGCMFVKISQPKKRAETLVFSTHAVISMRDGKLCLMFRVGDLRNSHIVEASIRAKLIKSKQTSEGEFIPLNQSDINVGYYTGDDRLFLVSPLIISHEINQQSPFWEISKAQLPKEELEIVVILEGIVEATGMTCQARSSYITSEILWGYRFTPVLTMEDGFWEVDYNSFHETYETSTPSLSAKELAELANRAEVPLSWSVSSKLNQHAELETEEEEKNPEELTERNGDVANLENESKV
Description: as §1

| inhibition of GIRK2 PIP L257W mutant channel, percentage inhibition (GIRK2 PIP L257W mutant) [%] | inhibition of IRK1 L245W mutant channel, percentage inhibition [1] [%] | modulation of GIRK4 currents, mean percentage change from basal (negative = inhibition) (GIRK4) [%] | modulation of GIRK4 S143T mutant channel, mean percentage change from basal [2] [%] | activation of GIRK4* Leu252 to Tyr mutant, percentage change from basal [3] [%] | pIC50 (GIRK2 PIP L257W mutant) | 1-PrOH activated current, GIRK2 Y349W, percentage change from basal current [4] [%] | activation of GIRK4*, mean percentage change from basal current [2] [%] | Carb (G-protein mediated) activation, GIRK4* L252 Tyr ([3]; 5 μM Carbachol) [%] | Carbachol activated current, GIRK2 Y349W, percentage change from basal current ([4]; 5 μM Carbachol) | Carb activation of GIRK4* wild type, % of basal current ([2]; 5 μM Carbachol, M2R co-transfected) [%] | Molecule |
| --- | --- | --- | --- | --- | --- | --- | --- | --- | --- | --- | --- |
| −99±3 | −20±2 | −70±3 | 23±3 | – | – | – | – | – | – | – | 1-butanol [1-BuOH] |
| −92±1 | −8±1 | 43±7 | 51±6 | 15±3 | ~2.29 | 256±25 | 64±7 | – | – | – | 1-propanol [1-PrOH] |
| −84±3 | −27±2 | 55±8 | 87±12 | – | ~2.11 | – | 113±14 | – | – | – | CC(O)CC(C)(C)O (racemic) [MPD, 2-methyl-2,4-pentanediol] |
| – | – | – | – | – | – | – | – | 110±14 | 56±5 | 231±38 | C[N+](C)(C)CCOC(N)=O [Carbachol] |
| −20±2 | −3±1 | 43±6 | 35±4 | 20±3 | – | – | 36±3 | – | – | – | CCO [EtOH, ethanol] |

Reference: patent publication US8097422B2, “Kir channel modulators” (Salk Institute for Biological Studies, priority 2007, dated 2012)
